Measured values reported in patent publication US4017534A, “16-Fluoro-11-deoxy-13-dihydro-prostaglandin” (American Cyanamid Company, priority 1975, dated 1977).

Experiments:
[1] = tested on: bronchospasms elicited by 5-hydroxytryptamine; assay: Bronchodilator activity (intraduodenal route) against 5-hydroxytryptamine; format: in vivo, guinea pigs; set-up: key: 0: no activity; +: minimal activity; ++++: maximum activity; details: intraduodenal dose 3.2 mg./kg.
Procedure: (§1) The compounds of this invention are useful as bronchodilators for the treatment of asthma and chronic bronchitis. Bronchodilator activity is determined in guinea pigs against bronchospasms elicited by intravenous injections of 5-hydroxytryptamine, histamine or acetylcholine by the Konzett procedure. [See J. Lulling, P. Lievens, F. El Sayed and J. Prignot, Arzneimittel-Forschung, 18, 995 (1968).]
(§2) In Table A' which follows bronchodilator activity for representative compounds of this invention against one or more of three spasmogenic agents is reported. In this assay candidate compounds are suspended in 10% gum arabic solution and the suspension is administered by the intraduodenal route. The activity of the compound at any one dose is then investigated throughout the following hour (see above-cited reference, J. Lulling et al.). Potency is then reported as O, +, ++, +++, or ++++, wherein 0 represents no activity, + minimal activity and ++++ maximum activity.

[2] = tested on: bronchospasms elicited by acetylcholine; assay: Bronchodilator activity (intraduodenal route) against acetylcholine; format: in vivo, guinea pigs; set-up: key: 0: no activity; +: minimal activity; ++++: maximum activity; details: intraduodenal dose 3.2 mg./kg.
Procedure: as §1, §2

CCCCC[C@H](O)CC[C@H]1CCC2(OCCCO2)[C@@H]1CCCCCCC(=O)O [l-15(S)-hydroxy-9,9-(propylenedioxy)-prostanoic acid]
Bronchodilator potency, Spasmogenic Agent 5-Hydroxytryptamine [1]: + | Bronchodilator potency, Spasmogenic Agent Acetylcholine [2]: +
